The results in this text go back to patent US12679878B2, “CRF2 receptor agonists and their use in therapy” (SANOFI, priority 2020, dated 2026).

Starred links: 1 amine or outer side, 2 acyl side, 3 side chain; linkers in the order of their positions; H or OH if unused. Non-standard residues stand in square brackets, D forms with d. Residues, ends and D or L forms follow the SMILES beside them. Groups on a side chain read outwards from the residue. *: point of attachment. γGlu = O=C(O)[C@H](CCC(=O)[*:2])N[*:1]; Palmitoyl = CCCCCCCCCCCCCCCC(=O)*; Aib = CC(C)(N)C(=O)O

Experiment [1] concerns the target T1, human CRF2α receptor (Homo sapiens, UniProt Q13324).
T1 construct: expressed in transfected cells; host or cells: TeloHEAC
T1 sequence (Q13324 1-411): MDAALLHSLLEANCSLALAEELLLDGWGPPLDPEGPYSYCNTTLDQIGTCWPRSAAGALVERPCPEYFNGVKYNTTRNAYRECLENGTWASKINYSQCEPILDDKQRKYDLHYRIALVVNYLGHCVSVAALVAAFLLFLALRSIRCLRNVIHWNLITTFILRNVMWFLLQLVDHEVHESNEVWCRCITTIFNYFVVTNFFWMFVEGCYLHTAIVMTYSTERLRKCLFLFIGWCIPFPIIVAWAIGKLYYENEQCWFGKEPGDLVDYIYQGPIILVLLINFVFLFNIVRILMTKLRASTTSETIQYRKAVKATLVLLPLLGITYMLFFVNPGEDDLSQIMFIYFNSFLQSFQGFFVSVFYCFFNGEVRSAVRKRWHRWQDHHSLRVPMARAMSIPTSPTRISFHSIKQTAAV
Description: cAMP agonism at human CRF2α receptor in TeloHEAC cells, FA modified peptides (Example 19.9). The format is cell-based. The note with it: 0% HSA, relative to urocortin 2. Put shortly:
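Efficacy and EC50 are referenced to 100 nM urocortin 2 as 100%, with cAMP measured as the 665/620 nm HTRF ratio after 1 h at room temperature. Compounds (0.5 mM DMSO stock, 16 twofold dilutions) acted 30 min at 37 °C on CRF2α-expressing TeloHEAC cells, buffer containing IBMX and 0% or 0.2% HSA.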

The target in experiment [2] is T2, CRF1R receptor (Homo sapiens, UniProt P34998).
T2 construct: host or cells: CHO-K1 clone 2
T2 sequence (P34998 24-415): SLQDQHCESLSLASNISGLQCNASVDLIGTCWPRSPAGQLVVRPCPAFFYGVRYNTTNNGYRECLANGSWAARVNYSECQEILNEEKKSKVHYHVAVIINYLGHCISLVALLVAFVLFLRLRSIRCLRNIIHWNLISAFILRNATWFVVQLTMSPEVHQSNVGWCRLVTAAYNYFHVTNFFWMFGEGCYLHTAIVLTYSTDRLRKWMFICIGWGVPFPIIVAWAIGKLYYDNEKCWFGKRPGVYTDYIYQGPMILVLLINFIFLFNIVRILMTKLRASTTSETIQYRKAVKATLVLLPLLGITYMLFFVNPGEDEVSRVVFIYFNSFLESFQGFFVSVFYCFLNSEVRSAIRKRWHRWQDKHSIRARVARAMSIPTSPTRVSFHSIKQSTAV
Briefly: cAMP activity at anti-target CRF1R, CHO-K1 cell line clone 2 (Example 19.10). The format is cell-based. Conditions: ratio of CRF1 EC50 to CRF2 EC50. The procedure, abridged:
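A CRF1R-overexpressing CHO-K1 line (clone 2) was grown in F12/10% FBS/G418 and frozen in aliquots before use. The cAMP assay followed the preceding procedure, with 100% activation defined by Sauvagine at 100 nM.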

`CCCCCCCCCCCCCCCC(=O)N[C@@H](CCC(=O)NCCCC[C@H](NC(=O)[C@H](CC(C)C)NC(=O)[C@H](CCCCN)NC(=O)[C@@H](NC(=O)[C@@H]1CCCN1C(=O)[C@H](NC(=O)[C@H](CC(=O)O)NC(=O)[C@H](CC(C)C)NC(=O)[C@H](CO)NC(=O)[C@H](CC(C)C)NC(=O)[C@@H](NC(=O)[C@@H](N)[C@@H](C)CC)C(C)C)C(C)C)[C@@H](C)CC)C(=O)N[C@@H](CCC(N)=O)C(=O)N[C@H](C(=O)N[C@@H](CC(C)C)C(=O)N[C@@H](CC(C)C)C(=O)N[C@@H](CCCCN)C(=O)N[C@@H](CCC(N)=O)C(=O)N[C@@H](CCC(=O)O)C(=O)N[C@@H](CCCNC(=N)N)C(=O)N[C@@H](CCC(N)=O)C(=O)N[C@@H](CCCCN)C(=O)N[C@@H](CCCCN)C(=O)NC(C)(C)C(=O)N[C@@H](CCCNC(=N)N)C(=O)N[C@@H](CCC(N)=O)C(=O)N[C@@H](CCCCN)C(=O)N[C@@H](C)C(=O)N[C@@H](CCC(=O)O)C(=O)N[C@@H](CCCCN)C(=O)N[C@@H](CC(N)=O)C(=O)N[C@@H](CCCCN)C(=O)N[C@@H](CCC(N)=O)C(=O)N[C@H](C(=O)N[C@@H](CC(C)C)C(=O)N[C@@H](C)C(=O)N[C@@H](CCC(N)=O)C(=O)N[C@H](C(N)=O)C(C)C)[C@@H](C)CC)[C@@H](C)CC)C(=O)O` [compound 209] (H-IVLSLD[dV]PIKLK([γGlu-Palmitoyl])QILLKQERQKK[Aib]RQKAEKNKQILAQV-NH2; N-terminus assumed): the midpoint of the response in experiment [1], the EC50, lay at 8.62 nM. In addition, the CRF1/CRF2 ratio in experiment [2] was 3.

With `CCCCCCCCCCCCCCCC(=O)N[C@@H](CCC(=O)NCCCC[C@H](NC(=O)[C@H](CC(C)C)NC(=O)[C@H](CCCCN)NC(=O)[C@@H](NC(=O)[C@@H]1CCCN1C(=O)[C@H](NC(=O)[C@H](CC(=O)O)NC(=O)[C@H](CC(C)C)NC(=O)[C@H](CO)NC(=O)[C@H](CC(C)C)NC(=O)[C@@H](NC(=O)[C@@H](N)[C@@H](C)CC)C(C)C)C(C)C)[C@@H](C)CC)C(=O)N[C@@H](CCC(N)=O)C(=O)N[C@H](C(=O)N[C@@H](CC(C)C)C(=O)N[C@@H](CC(C)C)C(=O)N[C@@H](CCCCN)C(=O)N[C@@H](CCC(N)=O)C(=O)N[C@@H](CCC(=O)O)C(=O)N[C@@H](CCCNC(=N)N)C(=O)N[C@@H](CCC(N)=O)C(=O)N[C@@H](CCCCN)C(=O)N[C@@H](CCCCN)C(=O)N[C@@H](CCC(N)=O)C(=O)N[C@@H](CCCNC(=N)N)C(=O)N[C@@H](CCC(=O)O)C(=O)N[C@@H](CCC(N)=O)C(=O)N[C@@H](C)C(=O)N[C@@H](CCC(=O)O)C(=O)N[C@@H](CCCCN)C(=O)N[C@@H](CC(N)=O)C(=O)N[C@@H](CCCCN)C(=O)N[C@@H](CCC(N)=O)C(=O)N[C@H](C(=O)N[C@@H](CC(C)C)C(=O)N[C@@H](CCC(=O)O)C(=O)N[C@@H](CCC(N)=O)C(=O)N[C@H](C(N)=O)C(C)C)[C@@H](C)CC)[C@@H](C)CC)C(=O)O` [compound 212] (H-IVLSLD[dV]PIKLK([γGlu-Palmitoyl])QILLKQERQKKQREQAEKNKQILEQV-NH2; N-terminus assumed), in experiment [1], the response was half-maximal at 1.23 nM (EC50). Moreover, the CRF1/CRF2 ratio in experiment [2] stood at 1.

Consider `CCCCCCCCCCCCCCCC(=O)N[C@@H](CCC(=O)NCCCC[C@H](NC(=O)[C@H](CC(C)C)NC(=O)[C@H](CCCCN)NC(=O)[C@@H](NC(=O)[C@@H]1CCCN1C(=O)[C@H](NC(=O)[C@H](CC(=O)O)NC(=O)[C@H](CC(C)C)NC(=O)[C@H](CO)NC(=O)[C@H](CC(C)C)NC(=O)[C@@H](NC(=O)[C@@H](N)[C@@H](C)CC)C(C)C)C(C)C)[C@@H](C)CC)C(=O)N[C@@H](CCC(N)=O)C(=O)N[C@H](C(=O)N[C@@H](CC(C)C)C(=O)N[C@@H](CC(C)C)C(=O)N[C@@H](CCCCN)C(=O)N[C@@H](CCC(N)=O)C(=O)N[C@@H](CCC(=O)O)C(=O)N[C@@H](CCCNC(=N)N)C(=O)N[C@@H](CCC(N)=O)C(=O)N[C@@H](CCCCN)C(=O)N[C@@H](CCCCN)C(=O)N[C@@H](CCC(N)=O)C(=O)N[C@@H](CCCNC(=N)N)C(=O)N[C@@H](CCC(N)=O)C(=O)N[C@@H](CCC(N)=O)C(=O)N[C@@H](C)C(=O)N[C@@H](CCC(=O)O)C(=O)N[C@@H](CCCCN)C(=O)N[C@@H](CC(N)=O)C(=O)N[C@@H](CCCCN)C(=O)N[C@@H](CCC(N)=O)C(=O)N[C@H](C(=O)N[C@@H](CC(C)C)C(=O)N[C@@H](C)C(=O)N[C@@H](CCC(N)=O)C(=O)N[C@H](C(N)=O)C(C)C)[C@@H](C)CC)[C@@H](C)CC)C(=O)O` [compound 214] (H-IVLSLD[dV]PIKLK([γGlu-Palmitoyl])QILLKQERQKKQRQQAEKNKQILAQV-NH2; N-terminus assumed), for which, in experiment [1], the midpoint of the response, the EC50, lay at 4.15 nM. For the same molecule, in experiment [2], the CRF1/CRF2 ratio came to 1.

In turn, `CCCCCCCCCCCCCCCC(=O)N[C@@H](CCC(=O)NCCCC[C@H](NC(=O)[C@H](CC(C)C)NC(=O)CNC(=O)[C@@H](NC(=O)[C@@H]1CCCN1C(=O)[C@H](NC(=O)[C@H](CC(=O)O)NC(=O)[C@H](CC(C)C)NC(=O)[C@H](CO)NC(=O)[C@H](CC(C)C)NC(=O)[C@@H](NC(=O)[C@@H](N)[C@@H](C)CC)C(C)C)C(C)C)[C@@H](C)CC)C(=O)N[C@@H](CCC(N)=O)C(=O)N[C@H](C(=O)N[C@@H](CC(C)C)C(=O)N[C@@H](CC(C)C)C(=O)N[C@@H](CCCCN)C(=O)N[C@@H](CCC(N)=O)C(=O)N[C@@H](CCC(=O)O)C(=O)N[C@@H](CCCNC(=N)N)C(=O)N[C@@H](CCC(N)=O)C(=O)N[C@@H](CCCCN)C(=O)N[C@@H](CCCCN)C(=O)NC(C)(C)C(=O)N[C@@H](CCCNC(=N)N)C(=O)N[C@@H](CCC(=O)O)C(=O)N[C@@H](CCC(N)=O)C(=O)N[C@@H](C)C(=O)N[C@@H](CCC(=O)O)C(=O)N[C@@H](CCCCN)C(=O)N[C@@H](CC(N)=O)C(=O)N[C@@H](CCCCN)C(=O)N[C@@H](CCCNC(=N)N)C(=O)N[C@H](C(=O)N[C@@H](CC(C)C)C(=O)N[C@@H](CCC(=O)O)C(=O)N[C@@H](CCCNC(=N)N)C(=O)N[C@H](C(N)=O)C(C)C)[C@@H](C)CC)[C@@H](C)CC)C(=O)O` [compound 218] (H-IVLSLD[dV]PIGLK([γGlu-Palmitoyl])QILLKQERQKK[Aib]REQAEKNKRILERV-NH2) yielded an EC50 in experiment [1] of 1.58 nM. Further, in experiment [2], the CRF1/CRF2 ratio is on record as 4.

Molecule `CCCCCCCCCCCCCCCC(=O)N[C@@H](CCC(=O)NCCCC[C@H](NC(=O)[C@H](CC(C)C)NC(=O)[C@H](CCCCN)NC(=O)[C@@H](NC(=O)[C@@H]1CCCN1C(=O)[C@H](NC(=O)[C@H](CC(=O)O)NC(=O)[C@H](CC(C)C)NC(=O)[C@H](CO)NC(=O)[C@H](CC(C)C)NC(=O)[C@@H](NC(=O)[C@@H](N)[C@@H](C)CC)C(C)C)C(C)C)[C@@H](C)CC)C(=O)N[C@@H](CCC(N)=O)C(=O)N[C@H](C(=O)N[C@@H](CC(C)C)C(=O)N[C@@H](CC(C)C)C(=O)N[C@@H](CCCCN)C(=O)N[C@@H](CCC(N)=O)C(=O)N[C@@H](C)C(=O)N[C@@H](CCCNC(=N)N)C(=O)N[C@@H](CCC(N)=O)C(=O)N[C@@H](CCCCN)C(=O)NC(C)(C)C(=O)N[C@@H](CCC(N)=O)C(=O)N[C@@H](CCCNC(=N)N)C(=O)N[C@@H](C)C(=O)N[C@@H](CCC(N)=O)C(=O)N[C@@H](C)C(=O)N[C@@H](CCC(=O)O)C(=O)N[C@@H](CCCCN)C(=O)N[C@@H](CC(N)=O)C(=O)N[C@@H](CCCCN)C(=O)N[C@@H](CCCNC(=N)N)C(=O)N[C@H](C(=O)N[C@@H](CC(C)C)C(=O)N[C@@H](CCC(=O)O)C(=O)N[C@@H](CCCNC(=N)N)C(=O)N[C@H](C(N)=O)C(C)C)[C@@H](C)CC)[C@@H](C)CC)C(=O)O` [compound 219] (H-IVLSLD[dV]PIKLK([γGlu-Palmitoyl])QILLKQARQK[Aib]QRAQAEKNKRILERV-NH2) displayed an EC50 in experiment [1] of 5.98 nM. Besides, in experiment [2], the CRF1/CRF2 ratio is 2.

One may read the EC50 as the concentration needed to bring the measured effect to its halfway point.
